Results as given in ChEMBL document CHEMBL4507324 (2021).

What was measured:
[1] = target: T1, Mitogen-activated protein kinase 11 (Homo sapiens, UniProt Q15759); test: NanoBRET (SGC-Frankfurt) (MAPK11)
[2] = system: Tyrosine-protein kinase ABL1 (Homo sapiens), P00519 [Q252H]; details: Compound concentration 100.0 nM
[3] = target: Tyrosine-protein kinase ABL1 (Homo sapiens) (UniProt P00519); details: Compound concentration 100.0 nM
[4] = target: Bone morphogenetic protein receptor type-1A (Homo sapiens) (UniProt P36894); details: Compound concentration 100.0 nM
Chain of Bone morphogenetic protein receptor type-1A (Homo sapiens) (P36894 whole entry): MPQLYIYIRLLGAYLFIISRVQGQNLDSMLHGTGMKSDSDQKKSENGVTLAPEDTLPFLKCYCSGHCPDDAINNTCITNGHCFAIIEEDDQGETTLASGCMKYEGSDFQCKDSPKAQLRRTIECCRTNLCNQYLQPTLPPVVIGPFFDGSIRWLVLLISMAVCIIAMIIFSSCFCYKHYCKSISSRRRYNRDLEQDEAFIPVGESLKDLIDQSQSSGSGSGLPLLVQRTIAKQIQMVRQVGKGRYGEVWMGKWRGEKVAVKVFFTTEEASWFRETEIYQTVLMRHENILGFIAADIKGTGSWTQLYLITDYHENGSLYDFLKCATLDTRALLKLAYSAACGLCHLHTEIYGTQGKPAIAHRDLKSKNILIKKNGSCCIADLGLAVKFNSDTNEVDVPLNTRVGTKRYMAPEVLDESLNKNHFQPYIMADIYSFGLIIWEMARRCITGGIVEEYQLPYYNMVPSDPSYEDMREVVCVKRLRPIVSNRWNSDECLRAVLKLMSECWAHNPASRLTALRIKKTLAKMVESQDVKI

[5] = target: Calcium/calmodulin-dependent protein kinase type 1 (Homo sapiens) (UniProt Q14012); details: Compound concentration 100.0 nM
[6] = target: Dual specificity tyrosine-phosphorylation-regulated kinase 1A (Homo sapiens) (UniProt Q13627); details: Compound concentration 100.0 nM
[7] = target: Homeodomain-interacting protein kinase 4 (Homo sapiens) (UniProt Q8NE63); details: Compound concentration 100.0 nM
Chain of Homeodomain-interacting protein kinase 4 (Homo sapiens) (Q8NE63 whole entry): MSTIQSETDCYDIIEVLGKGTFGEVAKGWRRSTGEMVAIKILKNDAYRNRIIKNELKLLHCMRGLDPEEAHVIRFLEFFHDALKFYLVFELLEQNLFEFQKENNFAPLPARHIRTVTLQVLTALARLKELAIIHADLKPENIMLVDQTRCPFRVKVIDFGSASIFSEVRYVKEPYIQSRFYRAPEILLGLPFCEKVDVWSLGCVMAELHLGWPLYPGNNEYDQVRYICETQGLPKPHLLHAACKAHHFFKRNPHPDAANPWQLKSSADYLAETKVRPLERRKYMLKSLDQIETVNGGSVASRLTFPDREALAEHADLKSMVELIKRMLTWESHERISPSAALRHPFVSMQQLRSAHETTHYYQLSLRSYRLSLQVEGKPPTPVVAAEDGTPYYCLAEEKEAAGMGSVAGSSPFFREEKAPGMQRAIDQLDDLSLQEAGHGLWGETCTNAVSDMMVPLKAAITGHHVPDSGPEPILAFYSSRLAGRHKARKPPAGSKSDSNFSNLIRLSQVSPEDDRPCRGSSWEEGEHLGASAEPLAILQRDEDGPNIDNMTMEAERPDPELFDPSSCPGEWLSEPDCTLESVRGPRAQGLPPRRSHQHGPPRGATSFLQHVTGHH

[8] = target: Tyrosine-protein kinase JAK1 (Homo sapiens) (UniProt P23458); details: Compound concentration 100.0 nM
[9] = target: Mitogen-activated protein kinase 8 (Homo sapiens) (UniProt P45983); details: Compound concentration 100.0 nM
Chain of Mitogen-activated protein kinase 8 (Homo sapiens) (P45983 whole entry): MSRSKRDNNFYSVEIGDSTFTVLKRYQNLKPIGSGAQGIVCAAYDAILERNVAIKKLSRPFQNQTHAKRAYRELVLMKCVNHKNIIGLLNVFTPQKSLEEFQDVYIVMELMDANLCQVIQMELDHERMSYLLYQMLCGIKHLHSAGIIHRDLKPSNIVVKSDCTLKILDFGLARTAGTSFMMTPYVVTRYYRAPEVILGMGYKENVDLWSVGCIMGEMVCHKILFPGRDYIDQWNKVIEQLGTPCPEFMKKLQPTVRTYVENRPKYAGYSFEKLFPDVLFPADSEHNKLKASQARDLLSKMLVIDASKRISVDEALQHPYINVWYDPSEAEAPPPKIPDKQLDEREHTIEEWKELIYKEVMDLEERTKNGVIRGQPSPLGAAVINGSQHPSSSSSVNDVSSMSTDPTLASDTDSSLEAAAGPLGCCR

[10] = target: Serine/threonine-protein kinase 4 (Homo sapiens) (UniProt Q13043); details: Compound concentration 100.0 nM
Chain of Serine/threonine-protein kinase 4 (Homo sapiens) (Q13043 whole entry): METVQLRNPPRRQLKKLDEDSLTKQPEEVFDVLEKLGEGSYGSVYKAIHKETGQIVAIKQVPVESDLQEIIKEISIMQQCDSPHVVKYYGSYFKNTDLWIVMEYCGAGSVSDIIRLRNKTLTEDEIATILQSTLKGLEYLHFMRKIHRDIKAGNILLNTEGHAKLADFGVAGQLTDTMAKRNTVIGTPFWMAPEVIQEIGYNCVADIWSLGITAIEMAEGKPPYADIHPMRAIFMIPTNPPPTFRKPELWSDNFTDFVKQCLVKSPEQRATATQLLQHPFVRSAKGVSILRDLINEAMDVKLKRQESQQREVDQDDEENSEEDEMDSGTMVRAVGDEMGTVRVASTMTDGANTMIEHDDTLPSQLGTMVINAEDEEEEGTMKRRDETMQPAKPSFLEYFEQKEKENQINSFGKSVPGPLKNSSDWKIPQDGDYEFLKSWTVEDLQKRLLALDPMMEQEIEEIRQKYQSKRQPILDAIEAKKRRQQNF

[11] = target: Serine/threonine-protein kinase Nek6 (Homo sapiens) (UniProt Q9HC98); details: Compound concentration 100.0 nM
Chain of Serine/threonine-protein kinase Nek6 (Homo sapiens) (Q9HC98 whole entry): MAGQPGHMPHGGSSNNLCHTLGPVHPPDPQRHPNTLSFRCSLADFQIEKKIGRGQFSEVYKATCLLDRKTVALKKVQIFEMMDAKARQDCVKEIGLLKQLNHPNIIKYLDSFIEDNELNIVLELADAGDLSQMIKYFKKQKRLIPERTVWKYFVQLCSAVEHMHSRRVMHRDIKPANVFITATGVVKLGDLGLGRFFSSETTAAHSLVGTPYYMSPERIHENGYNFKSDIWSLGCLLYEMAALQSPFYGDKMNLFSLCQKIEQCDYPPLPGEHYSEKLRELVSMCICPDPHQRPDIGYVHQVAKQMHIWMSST

[12] = target: T1, Mitogen-activated protein kinase 11; details: Compound concentration 100.0 nM
[13] = target: Serine/threonine-protein kinase PAK 2 (Homo sapiens) (UniProt Q13177); details: Compound concentration 100.0 nM
Chain of Serine/threonine-protein kinase PAK 2 (Homo sapiens) (Q13177 whole entry): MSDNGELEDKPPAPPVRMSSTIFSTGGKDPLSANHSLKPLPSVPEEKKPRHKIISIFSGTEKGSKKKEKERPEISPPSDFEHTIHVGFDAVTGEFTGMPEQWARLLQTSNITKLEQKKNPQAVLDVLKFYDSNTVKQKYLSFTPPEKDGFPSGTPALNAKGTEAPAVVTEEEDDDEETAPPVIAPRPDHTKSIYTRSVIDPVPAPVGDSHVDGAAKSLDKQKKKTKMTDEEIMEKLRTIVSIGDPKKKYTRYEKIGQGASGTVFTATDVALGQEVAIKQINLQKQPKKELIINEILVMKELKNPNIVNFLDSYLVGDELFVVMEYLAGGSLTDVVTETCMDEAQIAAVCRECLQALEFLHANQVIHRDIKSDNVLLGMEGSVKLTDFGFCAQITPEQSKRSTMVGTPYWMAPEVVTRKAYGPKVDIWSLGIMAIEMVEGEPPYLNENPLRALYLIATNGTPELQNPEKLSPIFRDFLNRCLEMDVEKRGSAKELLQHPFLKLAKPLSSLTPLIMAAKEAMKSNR

[14] = target: Protein kinase C epsilon type (Homo sapiens) (UniProt Q02156); details: Compound concentration 100.0 nM
Chain of Protein kinase C epsilon type (Homo sapiens) (Q02156 whole entry): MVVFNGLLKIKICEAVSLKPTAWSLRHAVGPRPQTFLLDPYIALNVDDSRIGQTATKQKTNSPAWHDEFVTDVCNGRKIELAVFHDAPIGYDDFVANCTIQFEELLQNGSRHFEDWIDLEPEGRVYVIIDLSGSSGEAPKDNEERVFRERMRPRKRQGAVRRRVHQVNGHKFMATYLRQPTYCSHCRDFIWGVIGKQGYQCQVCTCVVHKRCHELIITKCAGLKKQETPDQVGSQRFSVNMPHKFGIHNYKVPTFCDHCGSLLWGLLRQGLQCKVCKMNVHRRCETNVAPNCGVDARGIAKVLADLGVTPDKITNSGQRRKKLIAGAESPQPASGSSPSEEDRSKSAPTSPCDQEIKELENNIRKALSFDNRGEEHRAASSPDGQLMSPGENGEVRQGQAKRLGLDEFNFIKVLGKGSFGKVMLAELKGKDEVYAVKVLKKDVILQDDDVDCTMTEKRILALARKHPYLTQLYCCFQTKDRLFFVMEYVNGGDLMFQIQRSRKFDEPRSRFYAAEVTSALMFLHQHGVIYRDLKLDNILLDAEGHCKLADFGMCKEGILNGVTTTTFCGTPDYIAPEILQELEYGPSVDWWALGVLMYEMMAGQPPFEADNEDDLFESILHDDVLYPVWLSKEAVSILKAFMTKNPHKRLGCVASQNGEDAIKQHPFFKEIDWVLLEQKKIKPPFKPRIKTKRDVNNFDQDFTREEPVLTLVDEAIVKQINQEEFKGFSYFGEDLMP

[15] = target: Ribosomal protein S6 kinase alpha-5 (Homo sapiens) (UniProt O75582); details: Compound concentration 100.0 nM
[16] = target: Activated CDC42 kinase 1 (Homo sapiens) (UniProt Q07912); details: Compound concentration 100.0 nM
[17] = target: Testis-specific serine/threonine-protein kinase 1 (Homo sapiens) (UniProt Q9BXA7); details: Compound concentration 100.0 nM
Chain of Testis-specific serine/threonine-protein kinase 1 (Homo sapiens) (Q9BXA7 whole entry): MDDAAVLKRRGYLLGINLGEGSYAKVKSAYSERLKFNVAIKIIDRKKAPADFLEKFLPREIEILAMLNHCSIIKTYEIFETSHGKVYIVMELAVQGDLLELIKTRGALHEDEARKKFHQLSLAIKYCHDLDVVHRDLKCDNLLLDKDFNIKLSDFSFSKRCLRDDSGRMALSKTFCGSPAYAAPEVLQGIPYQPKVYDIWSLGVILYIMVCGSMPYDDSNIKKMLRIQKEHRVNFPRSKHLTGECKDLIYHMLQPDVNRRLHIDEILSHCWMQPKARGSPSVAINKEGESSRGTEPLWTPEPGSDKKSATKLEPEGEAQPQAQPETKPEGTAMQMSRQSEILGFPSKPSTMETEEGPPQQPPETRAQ

[18] = target: Wee1-like protein kinase 2 (Homo sapiens) (UniProt P0C1S8); details: Compound concentration 100.0 nM
Chain of Wee1-like protein kinase 2 (Homo sapiens) (P0C1S8 whole entry, looked up): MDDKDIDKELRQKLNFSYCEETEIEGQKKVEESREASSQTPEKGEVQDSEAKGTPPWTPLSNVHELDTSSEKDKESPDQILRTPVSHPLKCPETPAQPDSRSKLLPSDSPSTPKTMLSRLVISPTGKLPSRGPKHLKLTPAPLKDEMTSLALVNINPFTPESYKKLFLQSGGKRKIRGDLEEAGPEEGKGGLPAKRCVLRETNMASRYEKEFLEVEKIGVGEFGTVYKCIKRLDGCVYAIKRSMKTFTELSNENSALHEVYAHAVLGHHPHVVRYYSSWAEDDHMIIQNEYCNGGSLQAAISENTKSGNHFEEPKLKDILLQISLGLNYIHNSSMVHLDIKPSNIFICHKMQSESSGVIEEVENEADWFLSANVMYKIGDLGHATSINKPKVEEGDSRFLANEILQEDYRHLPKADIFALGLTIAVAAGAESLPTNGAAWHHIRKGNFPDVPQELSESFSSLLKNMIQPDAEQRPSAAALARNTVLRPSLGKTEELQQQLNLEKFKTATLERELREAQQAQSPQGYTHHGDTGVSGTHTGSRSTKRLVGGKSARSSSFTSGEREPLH

[19] = target: Serine/threonine-protein kinase Chk2 (Homo sapiens, UniProt O96017); test: NanoBRET (SGC-Frankfurt) (CHEK2)
[20] = target: Serine/threonine-protein kinase B-raf (Homo sapiens, UniProt P15056); test: NanoBRET (SGC-Frankfurt) (BRAF)
[21] = target: 5-hydroxytryptamine receptor 1B (Homo sapiens) (UniProt P28222); details: Compound concentration 10.0 uM
[22] = target: 5-hydroxytryptamine receptor 1D (Homo sapiens) (UniProt P28221); details: Compound concentration 10.0 uM
[23] = target: 5-hydroxytryptamine receptor 2B (Homo sapiens) (UniProt P41595); details: Compound concentration 10.0 uM
[24] = target: 5-hydroxytryptamine receptor 3A (Homo sapiens) (UniProt P46098); details: Compound concentration 10.0 uM
[25] = target: 5-hydroxytryptamine receptor 5A (Homo sapiens) (UniProt P47898); details: Compound concentration 10.0 uM
[26] = target: 5-hydroxytryptamine receptor 6 (Homo sapiens) (UniProt P50406); details: Compound concentration 10.0 uM
[27] = target: D(1A) dopamine receptor (Homo sapiens) (UniProt P21728); details: Compound concentration 10.0 uM
[28] = target: D(2) dopamine receptor (Homo sapiens) (UniProt P14416); details: Compound concentration 10.0 uM
[29] = target: D(3) dopamine receptor (Homo sapiens) (UniProt P35462); details: Compound concentration 10.0 uM
[30] = target: D(4) dopamine receptor (Homo sapiens) (UniProt P21917); details: Compound concentration 10.0 uM
[31] = target: D(1B) dopamine receptor (Homo sapiens) (UniProt P21918); details: Compound concentration 10.0 uM
[32] = target: Sodium-dependent serotonin transporter (Homo sapiens) (UniProt P31645); details: Compound concentration 10.0 uM
[33] = target: Mu-type opioid receptor (Homo sapiens) (UniProt P35372); details: Compound concentration 10.0 uM
[34] = target: Delta-type opioid receptor (Homo sapiens) (UniProt P41143); details: Compound concentration 10.0 uM
[35] = target: Kappa-type opioid receptor (Homo sapiens) (UniProt P41145); details: Compound concentration 10.0 uM
[36] = target: Histamine H3 receptor (Homo sapiens) (UniProt Q9Y5N1); details: Compound concentration 10.0 uM
[37] = target: Alpha-1A adrenergic receptor (Homo sapiens) (UniProt P35348); details: Compound concentration 10.0 uM
[38] = target: Alpha-2A adrenergic receptor (Homo sapiens) (UniProt P08913); details: Compound concentration 10.0 uM
[39] = target: Alpha-2C adrenergic receptor (Homo sapiens) (UniProt P18825); details: Compound concentration 10.0 uM
[40] = target: Beta-1 adrenergic receptor (Homo sapiens) (UniProt P08588); details: Compound concentration 10.0 uM
[41] = target: Beta-2 adrenergic receptor (Homo sapiens) (UniProt P07550); details: Compound concentration 10.0 uM
[42] = target: Muscarinic acetylcholine receptor M1 (Homo sapiens) (UniProt P11229); details: Compound concentration 10.0 uM
[43] = target: Muscarinic acetylcholine receptor M2 (Homo sapiens) (UniProt P08172); details: Compound concentration 10.0 uM
[44] = target: Muscarinic acetylcholine receptor M4 (Homo sapiens) (UniProt P08173); details: Compound concentration 10.0 uM
Rattus norvegicus = organism: Rattus norvegicus; details: Compound concentration 10.0 uM
[45] = target: Alpha-1D adrenergic receptor (Homo sapiens) (UniProt P25100); details: Compound concentration 10.0 uM
[46] = target: Sigma intracellular receptor 2 (Homo sapiens) (UniProt Q5BJF2); details: Compound concentration 10.0 uM

T1 sequence (Q15759 whole entry): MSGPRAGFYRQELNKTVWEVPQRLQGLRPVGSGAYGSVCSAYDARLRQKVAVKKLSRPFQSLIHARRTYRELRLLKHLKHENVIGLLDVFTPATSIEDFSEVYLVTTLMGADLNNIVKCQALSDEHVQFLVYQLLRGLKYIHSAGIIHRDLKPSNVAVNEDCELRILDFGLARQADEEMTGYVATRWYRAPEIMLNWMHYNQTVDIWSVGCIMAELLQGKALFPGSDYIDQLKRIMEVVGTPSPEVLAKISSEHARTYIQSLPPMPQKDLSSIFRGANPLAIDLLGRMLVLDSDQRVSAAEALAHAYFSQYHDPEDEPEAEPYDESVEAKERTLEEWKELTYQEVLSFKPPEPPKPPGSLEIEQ

Structure (SMILES): CS(=O)(=O)N1CCCC(NC(=O)[C@H](CCC2CCCCC2)NC(=O)c2ccc(CNc3ncnc4c3nnn4-c3ccccc3)cc2)C1 (stereo partly specified) [SR-301]
- IC50 [1]: 1.63 µM (not active)
- residual activity [2]: 95%
- residual activity [3]: 88%
- residual activity [4]: 90%
- residual activity [5]: 96%
- residual activity [6]: 87%
- residual activity [7]: 100%
- residual activity [8]: 89%
- residual activity [9]: 85%
- residual activity [10]: 100%
- residual activity [11]: 86%
- residual activity [12]: 100%
- residual activity [13]: 100%
- residual activity [14]: 63%
- residual activity [15]: 95%
- residual activity [16]: 91%
- residual activity [17]: 85%
- residual activity [18]: 100%

Structure (SMILES): CS(=O)(=O)N1CCCC(NC(=O)[C@H](CCC2CCCCC2)NC(=O)c2ccc(CNC(=O)c3cnc4ccccn34)cc2)C1 (stereo partly specified) [SR-302]
- IC50 [19]: > 25 µM
- IC50 [20]: > 25 µM
- residual activity [2]: 88%
- residual activity [4]: 94%
- residual activity [5]: 100%
- residual activity [6]: 100%
- residual activity [7]: 88%
- residual activity [8]: 100%
- residual activity [9]: 100%
- residual activity [10]: 100%
- residual activity [11]: 100%
- residual activity [13]: 93%
- residual activity [14]: 83%
- residual activity [16]: 70%
- residual activity [17]: 94%
- residual activity [18]: 97%
- inhibition [21]: 10.9%
- inhibition [22]: 18.9%
- inhibition [23]: 12.2%
- inhibition [24]: 3.83%
- inhibition [25]: 3.1%
- inhibition [26]: 18.2%
- inhibition [27]: -8.61%
- inhibition [28]: 7.14%
- inhibition [29]: 2.38%
- inhibition [30]: 3.78%
- inhibition [31]: 23.5%
- inhibition [32]: 19.8%
- inhibition [33]: 45.3%
- inhibition [34]: 8.18%
- inhibition [35]: 20.1%
- inhibition [36]: 0.32%
- inhibition [37]: 34.9%
- inhibition [38]: 7.22%
- inhibition [39]: 5.25%
- inhibition [40]: 20.3%
- inhibition [41]: 16.3%
- inhibition [42]: 28.4%
- inhibition [43]: 18.5%
- inhibition [44]: -2.24%
- inhibition (Rattus norvegicus): 13.2%
- inhibition [45]: 6.47%
- inhibition [46]: 32%
